4 compounds from article PMC3914206 can be followed below.

Holding throughout (assay type): binding
For experiment [1], the target named is T1, panel of 442 kinases (Homo sapiens, UniProt P51617).
T1 construct: purchased KINOMEscan
The following applies: Compound Concentration 10 µM. The source says:
(§1) We assessed the selectivity of members of this scaffold using the KINOMEscan methodology across a near comprehensive panel of 442 kinases [[18,27]].

Experiment [2] deals with T2, panel of 442 kinases (Homo sapiens, UniProt Q86UX6).
T2 construct: purchased KINOMEscan
T2 sequence (Q86UX6 whole entry): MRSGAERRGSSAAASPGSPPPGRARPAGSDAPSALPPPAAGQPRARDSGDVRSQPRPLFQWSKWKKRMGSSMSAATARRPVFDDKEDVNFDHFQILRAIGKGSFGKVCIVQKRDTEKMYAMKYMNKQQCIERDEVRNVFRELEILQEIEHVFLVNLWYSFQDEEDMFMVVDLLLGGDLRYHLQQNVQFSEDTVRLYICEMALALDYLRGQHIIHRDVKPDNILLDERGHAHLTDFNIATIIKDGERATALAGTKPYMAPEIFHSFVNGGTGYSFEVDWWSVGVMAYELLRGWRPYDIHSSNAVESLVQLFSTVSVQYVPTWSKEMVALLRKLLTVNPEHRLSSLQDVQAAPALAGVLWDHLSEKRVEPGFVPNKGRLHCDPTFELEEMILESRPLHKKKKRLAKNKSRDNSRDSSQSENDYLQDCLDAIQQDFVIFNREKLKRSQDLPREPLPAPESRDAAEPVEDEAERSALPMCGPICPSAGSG
The following applies: kinase YANK3; compound concentration 10 µM.
Excerpt: as §1

Experiment [3] addresses T3, panel of 442 kinases (Homo sapiens, UniProt Q9BXA7).
T3 construct: purchased KINOMEscan
T3 sequence (Q9BXA7 1-367): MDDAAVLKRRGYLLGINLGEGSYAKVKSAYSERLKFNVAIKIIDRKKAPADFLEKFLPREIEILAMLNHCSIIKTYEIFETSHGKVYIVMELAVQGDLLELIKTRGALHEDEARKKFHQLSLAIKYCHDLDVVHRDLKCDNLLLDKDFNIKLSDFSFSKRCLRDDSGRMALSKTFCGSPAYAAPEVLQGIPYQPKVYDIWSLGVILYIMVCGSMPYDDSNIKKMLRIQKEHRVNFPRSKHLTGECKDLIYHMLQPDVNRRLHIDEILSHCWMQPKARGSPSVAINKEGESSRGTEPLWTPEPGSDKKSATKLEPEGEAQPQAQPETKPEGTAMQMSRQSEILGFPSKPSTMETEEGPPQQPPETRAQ
The conditions noted are these: kinase TSSK1B; compound concentration 10 µM.
Excerpt: as §1

T1 sequence (P51617 whole entry): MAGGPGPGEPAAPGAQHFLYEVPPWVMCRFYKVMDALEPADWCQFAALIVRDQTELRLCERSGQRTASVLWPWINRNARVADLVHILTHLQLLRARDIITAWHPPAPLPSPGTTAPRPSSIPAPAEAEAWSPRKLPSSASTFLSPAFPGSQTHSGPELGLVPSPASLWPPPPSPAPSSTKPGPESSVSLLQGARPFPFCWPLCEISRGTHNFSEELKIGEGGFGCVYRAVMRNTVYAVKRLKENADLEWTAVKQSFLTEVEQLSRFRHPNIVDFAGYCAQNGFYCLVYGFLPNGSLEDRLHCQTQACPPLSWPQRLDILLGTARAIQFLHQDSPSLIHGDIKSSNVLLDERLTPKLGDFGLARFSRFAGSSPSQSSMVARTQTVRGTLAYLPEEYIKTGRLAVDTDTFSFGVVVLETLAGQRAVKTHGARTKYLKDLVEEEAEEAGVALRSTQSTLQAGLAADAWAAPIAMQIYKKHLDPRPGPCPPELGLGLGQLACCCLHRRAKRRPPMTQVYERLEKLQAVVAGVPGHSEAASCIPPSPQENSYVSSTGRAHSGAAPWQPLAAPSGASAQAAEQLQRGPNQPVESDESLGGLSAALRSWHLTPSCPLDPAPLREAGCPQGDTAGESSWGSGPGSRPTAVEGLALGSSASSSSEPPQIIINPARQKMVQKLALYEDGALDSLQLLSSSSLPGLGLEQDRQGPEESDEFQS

With `COc1cc(C(=O)N2CCC(N3CCN(C)CC3)CC2)ccc1Nc1ncc2c(n1)N(C)c1ccccc1C(=O)N2C` [15 (LRRK2-IN-1)], the “KINOMEscan: IRAK1” value at panel of 442 kinases [1] is on record as 100. Besides, at panel of 442 kinases [2], the “% Ctrl, YANK3” value stood at 100 % Ctrl. At panel of 442 kinases [3], the “% Ctrl, TSSK1B” value is 60 % Ctrl.
The like results for `COc1cc(C(=O)N2CCC(N3CCN(C)CC3)CC2)ccc1Nc1ncc2c(n1)N1CCc3cccc(c31)C(=O)N2C` [Compound 24] were, in that order, 95, 100 % Ctrl and 61 % Ctrl.
Take `COc1cc(C(=O)N2CCC(N3CCN(C)CC3)CC2)ccc1Nc1ncc2c(n1)N(C1CCCC1)c1ccccc1C(=O)N2C` [Compound 25, 11-cyclopentyl-2-((2-methoxy-4-(4-(4-methylpiperazin-1-yl)piperidine-1-carbonyl)phenyl)amino)-5-methyl-5H-benzo[e]pyrimido[5,4-b][1,4]diazepin-6(11H)-one]: the “KINOMEscan: IRAK1” value at panel of 442 kinases [1] is on record as 89. In addition, the “% Ctrl, YANK3” value on panel of 442 kinases [2] came to 100 % Ctrl. In addition, the “% Ctrl, TSSK1B” value at panel of 442 kinases [3] was determined as 90 % Ctrl.
On to `CCOc1cc(C(=O)N2CCC(N3CCN(C)CC3)CC2)ccc1Nc1ncc2c(n1)N(C1CCCC1)c1ccccc1C(=O)N2C` [Compound 26], for which, at panel of 442 kinases [1], the “KINOMEscan: IRAK1” value came out at 100. At panel of 442 kinases [2], the “% Ctrl, YANK3” value is given as 100 % Ctrl. At panel of 442 kinases [3], the “% Ctrl, TSSK1B” value came to 100 % Ctrl.
